From PMC7854658, “Structural basis for ligand recognition of the neuropeptide Y Y2 receptor” (Nature Communications, 2021) come the findings set out here.

Common to all, as to assay: NPY-induced IP accumulation (IP-One), mutant
Type in all cases: cell-based

In test [1] the target is T1, Y2R mutant D292^6.59N (Homo sapiens, UniProt P49146, D292N).
T1 construct: expressed in transfected cells; host or cells: HEK293
T1 sequence (P49146 1-381 D292N): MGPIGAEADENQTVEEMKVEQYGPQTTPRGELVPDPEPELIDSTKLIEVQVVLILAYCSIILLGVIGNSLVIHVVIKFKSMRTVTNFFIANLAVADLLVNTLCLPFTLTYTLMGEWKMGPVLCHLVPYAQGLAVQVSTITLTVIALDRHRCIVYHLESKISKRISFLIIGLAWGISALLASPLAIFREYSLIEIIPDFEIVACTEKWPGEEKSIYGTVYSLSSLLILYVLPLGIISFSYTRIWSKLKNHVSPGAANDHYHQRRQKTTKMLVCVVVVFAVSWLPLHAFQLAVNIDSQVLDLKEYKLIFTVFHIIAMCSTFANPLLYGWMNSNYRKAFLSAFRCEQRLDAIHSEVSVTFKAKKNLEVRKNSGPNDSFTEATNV
The protocol: (§1) The plasmid hY2R_eYFP_pVitro2 encoding the WT Y2R and a fluorophore for investigating the receptor localization was used as template for the generation of receptor point mutations as previously described. Mutagenesis PCR was performed using the Phusion High-Fidelity Polymerase (Thermo Fisher Scientific, Waltham, MA, USA). […] The preparations of the plasmid DNA were performed using the Wizard plus Mini or Midi DNA purification kit (Promega, Madison, WI, USA).
(§2) To determine the contribution of residues to antagonist binding, IP-One accumulation assays (Cisbio, Codolet, France) were performed. HEK293 cells were seeded into six-well plates and transiently cotransfected with 3200 ng of receptor plasmid DNA and 800 ng of the chimeric G protein (Gα∆6qi4myr) to redirect the Gαi signaling pathway to the Gαq phospholipase C pathway. Transient transfection was carried out using Metafectene as transfection reagent according to the manufacturer’s protocol (Biontex, Munich, Germany) over night. The cells were then reseeded into white 384-well microplates (Greiner Bio-One, Kremsmünster, Austria) at a density of 15,000 cells per well and grown for additional 24 h.
(§3) All dilutions were performed in HBSS containing 20 mM LiCl (stimulation buffer) and DMSO with a final concentration of 0.01%.
(§4) To determine the amount of cellular IPs, the FRET acceptor (IP1-d2) and the FRET donor (anti-IP1-Cryptate) were reconstituted and diluted in lysis and detection buffer (1:20) as described in the manufacturer’s protocol. Three microliters of both solutions were added, and the cells were incubated on a tumbler for 60 min.

For test [2], the target named is T2, Y2R mutant T111^2.65A (Homo sapiens, UniProt P49146, T111A).
T2 construct: expressed in transfected cells; host or cells: HEK293
T2 sequence (P49146 1-381 T111A): T1 sequence (P49146 1-381 D292N) with T111A, N292D
The protocol: as §1, §2, §3, §4

The target of test [3] is T3, Y2R mutant L224^5.43A (Homo sapiens, UniProt P49146, L224A).
T3 construct: expressed in transfected cells; host or cells: HEK293
To be noted: 1 μM antagonist, source data Fig. 3. The protocol: as §1, §2, §3, §4

Test [4] has as its target T4, Y2R mutant V134^3.36A (Homo sapiens, UniProt P49146, V134A).
T4 construct: expressed in transfected cells; host or cells: HEK293
T4 sequence (P49146 1-381 V134A): T1 sequence (P49146 1-381 D292N) with V134A, N292D
As for the experimental part: as §1, §2, §3, §4

In test [5] the target is T5, Y2R mutant L227^5.46A (Homo sapiens, UniProt P49146, L227A).
T5 construct: expressed in transfected cells; host or cells: HEK293
T5 sequence (P49146 1-381 L227A): T1 sequence (P49146 1-381 D292N) with L227A, N292D
The protocol:
as §1, §2, §3, §4

The mark [6] stands for this setting: 1 μM antagonist, source data Fig. 3.
Setting [7] is: EC50(NPY + 1 μM antagonist)/EC50(NPY).
The mark [8] stands for this setting: EC50 ratio (WT)/EC50 ratio (mutant).

The structures appear in SMILES notation. Substitutions are numbered along the chain they refer to. Values joined by “and” are separate entries in the source; they are usually repeats but may differ in a detail not shown here. Identical values can stand only once.

T3 sequence (P49146 whole entry L224A): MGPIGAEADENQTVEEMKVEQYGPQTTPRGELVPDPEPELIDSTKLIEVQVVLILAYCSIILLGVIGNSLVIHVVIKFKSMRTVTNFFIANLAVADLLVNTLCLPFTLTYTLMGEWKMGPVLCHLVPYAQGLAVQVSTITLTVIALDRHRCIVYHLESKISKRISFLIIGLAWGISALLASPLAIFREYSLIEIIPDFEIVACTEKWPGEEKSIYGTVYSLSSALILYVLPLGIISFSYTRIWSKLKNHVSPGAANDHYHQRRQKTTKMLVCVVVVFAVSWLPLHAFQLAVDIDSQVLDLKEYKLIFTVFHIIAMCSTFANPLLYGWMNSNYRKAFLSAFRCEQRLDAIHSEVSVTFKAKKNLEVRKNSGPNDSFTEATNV

As for `N=C(N)NCCC[C@H](NC(=O)CC1(CC(=O)N2CCN(C3c4ccccc4NC(=O)c4ccccc43)CC2)CCCC1)C(=O)NCCn1c(=O)n(-c2ccccc2)n(-c2ccccc2)c1=O` (some centres unmarked) [BIIE0246], the “Average EC50 ratio” value is 66.7 in test [1] (setting [6]); 247.7 in test [2] (setting [6]); 738.6 in test [3]; 81.8 in test [4] (setting [6]); 27.7 in test [5] (setting [6]). In addition, the “EC50 ratio (individual experiments)” value in test [1] (setting [6]) was 70.5 and 62.9; in test [2] (setting [6]) it was 265.4 and 230.1; in test [3], 1348.6 and 128.7; in test [4] (setting [6]), 76.2 and 87.4; in test [5] (setting [6]) it was 31.4 and 24.0. Besides, the EC50 ratio in test [1] (setting [7]) is 71 and 63; in test [2] (setting [7]), 265 and 230; in test [4] (setting [7]) it was 76 and 87; in test [5] (setting [7]), 31 and 24. In addition, the “Ratio change (fold)” value in test [2] (setting [8]) is 0.6 fold and 0.7 fold; in test [4] (setting [8]) it was 2 fold and 1.8 fold; in test [5] (setting [8]), 5 fold and 7 fold.
